Source: patent US20150283120A1, “ANTIBIOTIC METHODS AND COMPOSITIONS FOR BACTERIA INFECTIONS” (THE UNIVERSITY OF CHICAGO, priority 2012, published 2015)
Structures can show the parent of a compound that is named as a salt.

Key:
Assay type in all cases: cell-based, Staphylococcus aureus
[1] = system: vraR transcription; experiment: Tertiary screen: qRT-PCR of vraR in strain 923; settings: for Effect on vraSR Transcription: With oxacillin: compound 10 μM + oxacillin 2 μg/mL; for Effect on vraSR Transcription: Compound alone: compound 10 μM, no oxacillin
[2] = system: vraSR transcription (Pvra::lux); settings: compound 10 μM + oxacillin 2 μg/mL; for RL avg (relative luminescence): ratio of LU to oxacillin alone, four runs
Protocol: (§1) In the secondary screen each microtiter plate contained either cells in TSB alone (16 replicates), cells with oxacillin (2 μg/mL, 31 replicates), or cells with test compound and oxacillin (2 μg/mL, 49 wells). Each compound was assayed in four separate biological replicates.
(§2) All compounds classified in the primary screen as synergists that were vraSR-stimulating or -repressing (as shown in Table 8) were screened in a secondary assay for their effects on both growth and Pvra::lux induction by oxacillin. […] Each compound was tested four separate times at 10 μM in the presence of oxacillin (2 μg/mL) and luminescence was measured every 15 minutes. Relative growth (RG) and relative luminescence (RL) was calculated as the ratio between the OD600 or max LU value in the presence of compound and oxacillin over the average from pooled control values obtained from the same plate. […] Compounds that produced an average RG (ratio of the OD600 of the culture grown with test compound combined with oxacillin to that of oxacillin alone) of <0.8 were classified as oxacillin synergists or potentiators. The relative luminescence (RL) was the ratio of the LU produced in the presence of the test compound combined with oxacillin to that produced by oxacillin alone. Compounds were classified as “vraSR repressors” (mean RL of <0.8), “vraSR stimulators”, (mean RL>1.2), and “vraSR neutral” (mean RL between 0.80-1.2). […] In contrast, 34 compounds had no effect on growth in the presence of oxacillin (“un” in the OD600 category). Among the oxacillin potentiators, there were 2 vraSR stimulators, 3 vraSR neutral compounds and 10 vraSR repressors.

[3] = system: MRSA strain USA300 Pvra-lux; settings: compound 10 μM + oxacillin 2 μg/mL; for RG avg (relative growth): ratio of OD600 to oxacillin alone, four runs
Protocol: as §1, §2

Compound | classification of lux screen result against qRT-PCR (true/false repressor or stimulator) ([1]; in the presence of oxacillin) | Effect on vraSR Transcription: With oxacillin ([1]; qRT-PCR of vraR) | Effect on vraSR Transcription: With oxacillin ([1]; qRT-PCR of vraR, listed as diethylstilbesterol) | Effect on vraSR Transcription: Compound alone ([1]; qRT-PCR of vraR) | Effect on vraSR transcription [2] | RL avg (relative luminescence) [2] | OD600 category [3] | RG avg (relative growth) [3] | Effect on vraSR transcription (summary) ([1]; qRT-PCR of vraR, alone and with oxacillin) | Effect on vraSR Transcription: With oxacillin ([1]; qRT-PCR of vraR, listed as fluspirilene)
OC(Cn1cncn1)(Cn1cncn1)c1ccc(F)cc1F [fluconazole] | false stimulator |  |  |  |  |  |  |  |  | 
CC/C(=C(/CC)c1ccc(O)cc1)c1ccc(O)cc1 [Diethylstilbestrol] |  | super-stimulate | enhanced oxacillin's effect on vraR transcription | None | repress (“vraSR repressors” (mean RL of <0.8)) | 0.26 | inhibited (of <0.8 were classified as oxacillin synergists or potentiators) | 0.41 |  | 
CCCCc1oc2ccccc2c1C(=O)c1cc(I)c(OCCN(CC)CC)c(I)c1 [Amiodarone hydrochloride] |  |  |  | stimulate | stimulate (“vraSR stimulators”, (mean RL>1.2)) | 0.68 | inhibited (of <0.8 were classified as oxacillin synergists or potentiators) | 0.84 |  | 
O=C1NCN(c2ccccc2)C12CCN(CCCC(c1ccc(F)cc1)c1ccc(F)cc1)CC2 [Fluspirilen] |  | vraR neutral |  | none | stimulate (“vraSR stimulators”, (mean RL>1.2)) | 0.28 | inhibited (of <0.8 were classified as oxacillin synergists or potentiators) | 0.47 | No effect | none
CCN1CCN(C(=O)N[C@@H](C(=O)N[C@@H]2C(=O)N3C(C(=O)O)=C(CSc4nnnn4C)CS[C@H]23)c2ccc(O)cc2)C(=O)C1=O [Cefoperazone dihydrate] |  |  |  | stimulate | neutral (“vraSR neutral” (mean RL between 0.80-1.2)) | 0.77 | inhibited (of <0.8 were classified as oxacillin synergists or potentiators) | 0.79 |  | 
Spiramycin |  | super-stimulate |  | None | repress (“vraSR repressors” (mean RL of <0.8)) | 0.31 | inhibited (of <0.8 were classified as oxacillin synergists or potentiators) | 0.43 |  | 
C#C[C@]1(O)CC[C@H]2[C@@H]3CCC4=CCCC[C@@H]4[C@H]3CC[C@@]21C [Lynestrenol] |  |  |  | stimulate | repress (“vraSR repressors” (mean RL of <0.8)) | 0.26 | inhibited (of <0.8 were classified as oxacillin synergists or potentiators) | 0.47 |  | 
N=C(N)NC(=O)Cc1c(Cl)cccc1Cl [Guanfacine hydrochloride] |  |  |  |  | neutral (“vraSR neutral” (mean RL between 0.80-1.2)) | 0.79 | un (no effect on growth in the presence of oxacillin (“un” in the OD600 category)) | 0.88 |  | 
N[C@@H](Cc1cc(I)c(Oc2ccc(O)c(I)c2)c(I)c1)C(=O)O [Liothyronine] |  |  |  |  | neutral (“vraSR neutral” (mean RL between 0.80-1.2)) | 0.87 | un (no effect on growth in the presence of oxacillin (“un” in the OD600 category)) | 0.88 |  | 
NS(=O)(=O)c1cc2c(cc1Cl)NC(C(Cl)Cl)NS2(=O)=O (centres unmarked) [Trichlormethiazide] |  |  |  |  | neutral (“vraSR neutral” (mean RL between 0.80-1.2)) | 1.06 | un (no effect on growth in the presence of oxacillin (“un” in the OD600 category)) | 1.10 |  | 
NS(=O)(=O)c1cc2c(cc1Cl)N=C(CSCc1ccccc1)NS2(=O)=O [Benzthiazide] |  |  |  |  | neutral (“vraSR neutral” (mean RL between 0.80-1.2)) | 0.95 | un (no effect on growth in the presence of oxacillin (“un” in the OD600 category)) | 1.01 |  | 
C=C1CC[C@H](O)C/C1=C/C=C1\CCC[C@]2(C)[C@@H]([C@H](C)/C=C/[C@H](C)C(C)C)CC[C@@H]12 [Calciferol] |  |  |  |  | neutral (“vraSR neutral” (mean RL between 0.80-1.2)) | 0.88 | un (no effect on growth in the presence of oxacillin (“un” in the OD600 category)) | 0.96 |  | 
COc1ccc(-c2cc(=O)c3c(O)cc(O)cc3o2)cc1 [Acacetin] |  |  |  |  | neutral (“vraSR neutral” (mean RL between 0.80-1.2)) | 0.88 | un (no effect on growth in the presence of oxacillin (“un” in the OD600 category)) | 0.91 |  | 
COc1cccc2c1C(=O)c1c(O)c3c(c(O)c1C2=O)C[C@@](O)(C(=O)CO)C[C@@H]3O[C@H]1C[C@H](N)[C@H](O)[C@H](C)O1 [Doxorubicin hydrochloride] |  |  |  |  | repress (“vraSR repressors” (mean RL of <0.8)) | 0.83 | un (no effect on growth in the presence of oxacillin (“un” in the OD600 category)) | 0.88 |  | 
CN(C)CCOC(=O)COc1ccc(Cl)cc1 [Meclofenoxate hydrochloride] |  |  |  |  | neutral (“vraSR neutral” (mean RL between 0.80-1.2)) | 1.08 | un (no effect on growth in the presence of oxacillin (“un” in the OD600 category)) | 1.08 |  | 
COc1cccc2c1C(=O)c1c(O)c3c(c(O)c1C2=O)C[C@@](O)(C(C)=O)C[C@@H]3O[C@H]1C[C@H](N)[C@H](O)[C@H](C)O1 [Daunorubicin hydrochloride] |  |  |  |  | repress (“vraSR repressors” (mean RL of <0.8)) | 1.00 | un (no effect on growth in the presence of oxacillin (“un” in the OD600 category)) | 0.98 |  | 
CCCC(=O)Nc1ncnc2c1ncn2[C@@H]1O[C@@H]2COP(=O)(O)O[C@H]2[C@H]1OC(=O)CCC [Bucladesine sodium salt] |  |  |  |  | neutral (“vraSR neutral” (mean RL between 0.80-1.2)) | 0.94 | un (no effect on growth in the presence of oxacillin (“un” in the OD600 category)) | 1.02 |  | 
CN(C)CCCN1c2ccccc2Sc2ccccc21 [Promazine hydrochloride] |  |  |  |  | neutral (“vraSR neutral” (mean RL between 0.80-1.2)) | 1.08 | un (no effect on growth in the presence of oxacillin (“un” in the OD600 category)) | 1.09 |  | 
O=C1c2c(O)ccc(O)c2C(=O)c2c(NCCNCCO)ccc(NCCNCCO)c21 [Mitoxantrone dihydrochloride] |  |  |  |  | neutral (“vraSR neutral” (mean RL between 0.80-1.2)) | 0.83 | un (no effect on growth in the presence of oxacillin (“un” in the OD600 category)) | 0.94 |  | 
CCN(CC)CCc1nc(-c2ccccc2)no1.O=C(O)CC(O)(CC(=O)O)C(=O)O [Oxalamine citrate salt] |  |  |  |  | neutral (“vraSR neutral” (mean RL between 0.80-1.2)) | 1.00 | un (no effect on growth in the presence of oxacillin (“un” in the OD600 category)) | 1.03 |  | 
CCn1nc(C(=O)O)c(=O)c2cc3c(cc21)OCO3 [Cinoxacin] |  |  |  |  | neutral (“vraSR neutral” (mean RL between 0.80-1.2)) | 1.03 | un (no effect on growth in the presence of oxacillin (“un” in the OD600 category)) | 1.05 |  | 
C[n+]1cc2c3c(ccc2c2ccc4cc5c(cc4c21)OCO5)OCO3 [Sanguinarine] |  |  |  |  | repress (“vraSR repressors” (mean RL of <0.8)) | 0.47 | inhibited (of <0.8 were classified as oxacillin synergists or potentiators) | 0.78 |  | 
CC1CS(=O)(=O)CCN1/N=C/c1ccc([N+](=O)[O-])o1 (centres unmarked) [Nifurtimox] |  |  |  |  | repress (“vraSR repressors” (mean RL of <0.8)) | 0.95 | un (no effect on growth in the presence of oxacillin (“un” in the OD600 category)) | 0.97 |  | 
